Laboratory results from US5409933A, “Quinoline derivatives and processes for preparing the same” (priority 1993, dated 1995).
Where a name gives a salt, the structure may show the parent alone. Read-outs that look alike come from different tables or passages of the source.

Tests used:
Assay in all cases: In Vitro Anti-Bacterial Activity Test (MIC, agar dilution)
Format in all cases: cell-based
[1] = tested on: Enterobacter cloacae 1321E; settings: Enterobacter cloacae 1321E; Muller-Hinton agar, 37° C., 18 hours; read-out: MIC
Description: (§1) The above in vitro antibacterial activity test was carried out in accordance with the agar culture medium dilution method (Hoechst 345) by using Muller-Hinton agar medium to determine the minimum inhibitory concentration (MIC).
(§2) The strains having 10^7 C.F.U./ml were inoculated on the culture medium, and the growth of the strains was observed after incubating them at 37° C. for 18 hours, in which ciprofloxacin was used as a control antibacterial agent. In this test, twenty typical strains were used.

Enterobacter cloacae P99 = settings: Enterobacter cloacae, P99, 18 h
Description: as §1, §2

Escherichia coli 078 = tested on: Escherichia coli 078
Description: as §1, §2

Escherichia coli 1507E = settings: Muller-Hinton agar, 37° C.
Description: as §1, §2

Escherichia coli DC0 = settings: Muller-Hinton agar, 37° C., 18 hours, read-out: MIC
Description: as §1, §2

Escherichia coli DC2 = settings: Escherichia coli, DC2, 18 h
Description: as §1, §2

Escherichia coli TEM = settings: Escherichia coli, 18 h, Muller-Hinton agar, 37° C.
Description: as §1, §2

[2] = tested on: Klebsiella aerogenes 1522E; settings: Klebsiella aerogenes, 1522E, 18 h, Klebsiella aerogenes 1522E; Muller-Hinton agar, 37° C., 18 hours; read-out: MIC
Description: as §1, §2

Klebsiella oxytoca 1082E = tested on: Klebsiella oxytoca 1082E
Description: as §1, §2

[3] = tested on: Pseudomonas aeruginosa 1592E; settings: Muller-Hinton agar, 37° C., 18 hours, read-out: MIC
Description: as §1, §2

[4] = tested on: Pseudomonas aeruginosa 1771M; settings: Pseudomonas aeruginosa, 1771M, 18 h, Muller-Hinton agar, 37° C.
Description: as §1, §2

[5] = tested on: Pseudomonas aeruginosa 1771
Description: as §1, §2

[6] = tested on: Pseudomonas aeruginosa 9027; settings: Muller-Hinton agar, 37° C., 18 hours, read-out: MIC
Description: as §1, §2

Salmonella typhimurium = settings: Salmonella enterica; Salmonella typhimurium; Muller-Hinton agar, 37° C., 18 hours; read-out: MIC
Description: as §1, §2

[7] = tested on: Staphylococcus aureus 285; settings: Staphylococcus aureus, 285, 18 h, Staphylococcus aureus 285; Muller-Hinton agar, 37° C., 18 hours; read-out: MIC
Description: as §1, §2

[8] = tested on: Staphylococcus aureus 503; settings: Staphylococcus aureus 503; Muller-Hinton agar, 37° C., 18 hours; read-out: MIC
Description: as §1, §2

[9] = tested on: Staphylococcus aureus SG511; settings: Staphylococcus aureus SG511; Muller-Hinton agar, 37° C., 18 hours; read-out: MIC
Description: as §1, §2

[10] = tested on: Streptococcus faecium MD8b; settings: Enterococcus faecium, Muller-Hinton agar, 37° C., 18 hours, read-out: MIC
Description: as §1, §2

[11] = tested on: Streptococcus pyogenes 308A; settings: Muller-Hinton agar, 37° C., 18 hours, read-out: MIC
Description: as §1, §2

[12] = tested on: Streptococcus pyogenes 77A
Description: as §1, §2

[13] = Escherichia coli 078, Muller-Hinton agar, 37° C., 18 hours, read-out: MIC
[14] = Klebsiella oxytoca 1082E, Muller-Hinton agar, 37° C., 18 hours, read-out: MIC
[15] = Pseudomonas aeruginosa 1771, Muller-Hinton agar, 37° C., 18 hours, read-out: MIC
[16] = Streptococcus pyogenes 77A, Muller-Hinton agar, 37° C., 18 hours, read-out: MIC

Row | Structure (SMILES) | MIC [1] [µg/mL] | MIC (Enterobacter cloacae P99) [µg/mL] | MIC (Escherichia coli 1507E; Escherichia coli, 1507E, 18 h) [µg/mL] | MIC (Escherichia coli DC0) [µg/mL] | MIC (Escherichia coli DC2) [µg/mL] | MIC (Escherichia coli TEM) [µg/mL] | MIC [2] [µg/mL] | MIC (Klebsiella oxytoca 1082E; [14]) [µg/mL] | MIC [3] [µg/mL] | MIC [4] [µg/mL] | MIC [5, 15] [µg/mL] | MIC [6] [µg/mL] | MIC (Salmonella typhimurium) [µg/mL] | MIC [7] [µg/mL] | MIC [8] [µg/mL] | MIC [9] [µg/mL] | MIC [10] [µg/mL] | MIC [11] [µg/mL] | MIC [12, 16] [µg/mL] | MIC (Escherichia coli 078; Escherichia coli, 078, 18 h) [µg/mL] | further results
1 | CNC1CCN(c2c(F)cc3c(=O)c(C(=O)C[N+](=O)[O-])cn(C4CC4)c3c2Cl)C1 (stereo not shown) [Example 63, 1-cyclopropyl-6-fluoro-8-chloro-7-(3-methylaminopyrrolidin-1-yl)-3-(2-nitroacetyl)-1,4-dihydro-4-oxoquinoline hydrochloride] | 0.013 | 0.013 | 0.007 | 0.098 | 0.025 | 0.007 | 0.013 | 0.007 | 0.195 | 0.049 | 0.195 | 0.391 | 0.004 | 0.049 | 0.049 | 0.025 | 0.098 | 0.391 | 0.098 |  | MIC (Escherichia coli 078; [13]): < 0.002 µg/mL
2 | CCOC(=O)C(C(=O)OCC)C(=O)c1cn(C2CC2)c2c(Cl)c(N3CC[C@H](N)C3)c(F)cc2c1=O [Example 24, 1-cyclopropyl-6-fluoro-8-chloro-7-(3-3S-aminopyrrolidin-1-yl)-3-(2,2-diethoxycarbonylacetyl)-1,4-dihydro-4-oxoquinoline hydrochloride] | < 0.002 | < 0.002 |  | 0.098 | 0.025 | < 0.002 | 0.013 | < 0.002 | 0.391 | 0.049 | 0.391 | 0.391 | < 0.002 | 0.049 | 0.049 | 0.049 | 0.391 | 0.391 | 0.391 |  | MIC (Escherichia coli 078; [13]): < 0.002 µg/mL; MIC (Escherichia coli 1507E; 18 hours, read-out: MIC): < 0.002 µg/mL
3 | CCn1cc(C(=O)C[N+](=O)[O-])c(=O)c2cc(F)c(N3CCC(N)C3)c(F)c21 (stereo not shown) [Example 30, 1-ethyl-6,8-difluoro-7-(3-aminopyrrolidin-1-yl)-3-(2-nitroacetyl)-1,4-dihydro-4-oxoquinoline hydrochloride] | 0.049 | 0.049 | 0.391 | 0.781 | 0.195 | 0.391 | 0.098 |  | 0.781 | 0.195 |  | 0.781 | 0.781 | 0.195 | 0.195 | 0.195 | 1.56 | 1.56 | 1.56 | 0.049 | MIC (Klebsiella oxytoca 1082E; Klebsiella oxytoca, 1082E, 18 h): 0.391 µg/mL; MIC ([5]; Pseudomonas aeruginosa, 1771, 18 h): 0.391 µg/mL
4 | CCOC(=O)C(C(=O)OCC)C(=O)c1cn(C2CC2)c2c(Cl)c(N3CCC(NC)C3)c(F)cc2c1=O (stereo not shown) [Example 57, 1-cyclopropyl-6-fluoro-8-chloro-7-(3-methylaminopyrrolidin-1-yl)-3-(2,2-diethoxycarbonylacetyl)-1,4-dihydro-4-oxoquinoline hydrochloride] | 0.049 | 0.013 | 0.013 | 0.049 | 0.025 | 0.013 | 0.049 | 0.049 | 0.781 | 0.195 | 0.391 | 1.56 | 0.013 | 0.195 | 0.195 | 0.049 | 0.098 | 0.781 | 0.195 | 0.007 | 
5 | NC1CCN(c2c(F)cc3c(=O)c(C(=O)CC(=O)C(F)(F)F)cn(C4CC4)c3c2Cl)C1 (stereo not shown) [Example 38, 1-cyclopropyl-6-fluoro-8-chloro-7-(3-aminopyrrolidin-1-yl)-3-(2-trifluoroacetoacetyl)-1,4-dihydro-4-oxoquinoline hydrochloride] | 0.049 | 0.098 | 0.098 | 0.195 | 0.098 | 0.195 | 0.098 | 0.025 | 0.781 | 0.391 | 1.56 | 1.56 | 0.049 | 0.781 | 0.391 | 0.391 | 0.781 | 1.56 |  | 0.195 | MIC ([12]; Streptococcus pyogenes, 77A, 18 h): 0.781 µg/mL
